Test results published in US5608095A, “Alkyl-4-silyl-phenols and esters thereof as antiatherosclerotic agents” (Hoechst Marion Roussel, Inc., priority 1996, dated 1997).
Like-named read-outs stand apart in the source and are kept apart here.

Key:
[1] = HPLC quantitation of compound and metabolite concentration in rat serum and liver; format: in vivo, male Sprague-Dawley rats; conditions: 4 days; for concentration at 96 h: po
Description: A typical experiment consisted of 4-6 groups of rats (N=5 per group) with 1 group being a control which received no MDL compound and the other groups being treated with 0.3% MDL compound. Some of the compounds were either repeated at 0.3% or evaluated again at the lower dose of 0.1%. Male Sprague-Dawley rats, 50-100 g, (Harlan Laboratories, Indianapolis, Ind.) were housed in groups of 5, fed ad libitum water and Purina Rodent chow (#5002) with or without MDL compound as a dietary admixture for 4 days. Dietary admixtures (0.3%) were made by mixing 1.2 grams of an MDL compound with 400 grams of Purina rodent chow (#5002). The MDL compound was mixed with approximately 50 grams of food using a mortar and pestle. This was added to the remainder of the food and mixed for 3 hours on a rotary mixer. In the morning of day 5, non-fasted rats were anesthetized with carbon dioxide, and blood was collected by cardiac puncture. Rats were sacrificed by cervical dislocation. Body weights and liver weights were recorded in grams. Food consumption was recorded as grams.cndot.day^-1.cndot.rat^-1. Deaths were recorded as mortality. Aliquots of fresh serum were used for clinical chemistries, thiobarbituric acid reactive substances (TBARS) and conjugated diene measurements. Aliquots of serum (~0.5mL) and whole livers were frozen at -20° C. for compound and metabolite concentration determination at a later time.
Serum and liver concentrations of parent compound and the metabolites, bisphenol and diphenoquinone, were determined by reverse phase HPLC using a Waters 990 Powerline system. Livers (1 gram samples) were homogenized with 5.0 mL PBS, pH 7.4, using a Polytron tissue homogenizer at setting 5 for 20-30 seconds. Serum or liver homogenates were extracted as follows: 100μL of either serum or homogenate were added to 2.0 mL diethyl ether:ethanol (3:1) while vortexing the tube. The sample tubes were capped and centrifuged for 10 min at 5° C. at 3500 rpm in a Beckman GPKR centrifuge with a GH 3.7 rotor. The supernatants were transferred to clean tubes and dried under N2. Samples were reconstituted with 200 μL of acetonitrile:hexane:0.1M ammonium acetate (90:6.5:3.5, by vol.). Then, 100 μL were injected onto a Waters Deltapak C18-300 Å column, and eluted with an 83% acetonitrile:17% water mobile phase at a flow rate of 1.5 mL/min. Absorbances at the wavelengths of 240, 254, and 420 nm were recorded. Compound concentrations were calculated from known quantities of authentic parent compounds after correction for recovery; the range of recovery from spiked samples was 40 to 100%. The lowest detectable limit for this class of compounds was ~0.5 μg/mL. […]. Concentrations were calculated as μg/mL of serum and μg/g of liver.

[2] = tested on: oxidation of serum lipids; assay: TBARS assay, serum of cholesterol-fed rabbits; format: in vivo, female New Zealand White rabbits; conditions: Oryctolagus cuniculus, po, read-out: TBARS, percent of control; for response vs control in vivo at 0.4 %: 168 h
Procedure, shortened: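 Female NZW rabbits ate 0.2% cholesterol chow with 0.4% dietary compound (some 0.26% or 0.6%) for 7 days (14 days at 0.6%); fasted serum was collected. Serum was oxidised with 5 mM CuSO4 solution, 37 °C 5 h, then reacted with thiobarbituric acid at 90 °C for 30 min. MDA nmol came from an A540 standard curve, versus untreated-rabbit serum.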

[3] = rabbit serum, diet 0.4%, 7 days
[4] = rat liver, diet 0.3%, read-out: Liver Parent = parent compound concentration
[5] = rat serum, diet 0.3%, read-out: Serum Parent = parent compound concentration
[6] = rat liver, diet 0.1%, read-out: Liver Parent = parent compound concentration
[7] = rat serum, diet 0.1%, read-out: Serum Parent = parent compound concentration

SMILES	Liver Parent = parent compound concentration ([1]; rat liver, diet 0.3%)	Serum Parent = parent compound concentration ([1]; rat serum, diet 0.3%)	response vs control in vivo at 0.4 % [2, 3]	concentration at 96 h [1, 4]	concentration at 96 h [1, 5]	also measured
CC(C)(C)c1cc(OC[Si](C)(C)c2ccccc2)cc(C(C)(C)C)c1OC(=O)CCC(=O)O [MDL 103,076, 2,6-Di-t-butyl-4-[(dimethylphenylsilyl)methyloxy]phenol succinic acid ester]	0 µg/g	0 µg/mL	–	–	–	–
CC(C)(C)c1cc(OC[Si](C)(C)c2ccccc2)c(C(C)(C)C)cc1O [MDL 104,962, 2,5-Di-t-butyl-4-[(dimethylphenylsilyl)methyloxy]phenol]	–	–	19%	43500 ng/g	16400 ng/mL	–
CC(=O)Oc1ccc(OC[Si](C)(C)c2ccccc2)cc1C(C)(C)C [MDL 105,443, 2-t-Butyl-4-[(dimethylphenylsilyl)methyloxy]phenol acetic acid ester]	0 µg/g	0.0 µg/mL	42%	–	–	Liver Parent = parent compound concentration ([1]; rat liver, diet 0.1%): 0 µg/g; Serum Parent = parent compound concentration ([1]; rat serum, diet 0.1%): 0 µg/mL
CC(C)(C)c1cc(OC[Si](C)(c2ccccc2)c2ccccc2)cc(C(C)(C)C)c1O [MDL 104,599, 2,6-Di-t-butyl-4-[(diphenylmethylsilyl)methloxy]phenol]	–	–	79%	44900 ng/g	28300 ng/mL	–
COc1ccc([Si](C)(C)COc2ccc(O)c(C(C)(C)C)c2)cc1 [MDL 106,834, 2-t-Butyl-4-[(dimethyl-p-methoxylphenylsilyl)methyloxy]phenol]	–	–	70%	2700 ng/g	1800 ng/mL	–
CC(C)(C)c1cc(SC[Si](C)(C)c2ccccc2)cc(C(C)(C)C)c1OC(=O)CCC(=O)O [MDL 103,141, 2,6-Di-t-butyl-4-[(dimethylphenylsilyl)methylthio]phenol sucinic acid ester]	0 µg/g	0 µg/mL	–	–	–	–
CC(C)(C)c1cc(OC[Si](C)(C)c2ccccc2)ccc1O [MDL 103,491, 2-t-Butyl-4-[(dimethylphenylsilyl)methyloxy]phenol]	0 µg/g	–	32%	–	3000 ng/mL	response vs control in vivo at 0.6 % ([2]; 336 h, rabbit serum, diet 0.6%, 14 days): 18%; Liver Parent = parent compound concentration ([1]; rat liver, diet 0.1%): 0 µg/g; Serum Parent = parent compound concentration ([1]; rat serum, diet 0.1%): 0 µg/mL
Cc1cc(OC[Si](C)(C)c2ccccc2)c(C)c(C)c1O [MDL 105,314, 2,3,6-Trimethyl-4-[(dimethylphenylsdilyl)methloxy]phenol]	0.0 µg/g	0.0 µg/mL	–	–	–	–
CC(C)(C)c1cc(OC[Si](C)(C)c2ccc(C(F)(F)F)cc2)cc(C(C)(C)C)c1O [MDL 105,975, 2,6-Di-t-butyl-4-[(dimethyl-4-trifluoromethylphenylsilyl)methyloxy]phenol]	–	–	–	186000 ng/g	35800 ng/mL	response vs control in vivo at 0.4 % [2]: 68%; concentration at 96 h [1, 6]: 94500 ng/g; concentration at 96 h [1, 7]: 23800 ng/mL
CN(C)c1ccc([Si](C)(C)COc2cc(C(C)(C)C)c(O)c(C(C)(C)C)c2)cc1 [MDL 104,556, 2,6-Di-t-butyl-4-[(4-N,N-dimethylaminophenyldimethylsilyl)methyloxy]phenol]	–	–	70%	60300 ng/g	16300 ng/mL	concentration at 96 h [1, 6]: 38700 ng/g; concentration at 96 h [1, 7]: 9200 ng/mL
CC(=O)Oc1c(C(C)(C)C)cc(OC[Si](C)(C)c2ccccc2)cc1C(C)(C)C [MDL 103,377, 2,6-Di-t-butyl-4-[(dimethylphenylsilyl)methyloxy]phenol acetic acid ester]	–	–	–	22200 ng/g	7720 ng/mL	–
